In US9862711B2, “Pyrazine derivatives as phosphatidylinositol 3-kinase inhibitors” (NOVARTIS AG, priority 2014, dated 2018) one finds IC50 data, which are given here for seven molecules.

Usually IC50 stands for the concentration that inhibits the measured activity by half.

The target of the assay is PI 3-kinase alpha (Homo sapiens (Human), UniProt P42336). Description: Cellular p-Akt (S473) SureFire assay, Rat-1_PI3Kalpha cells (Assay H). It counts as cell-based. To be noted: p-AKT (Ser473) in Rat-1 cells expressing myr-HA-hp110 alpha, 1 h compound; read-out: Assay H PI3Kα IC50. From the text: Cellular Assays for PI 3-Kinase Alpha (H), Beta (I) and Delta (J)
Chain of PI 3-kinase alpha (P42336 whole entry): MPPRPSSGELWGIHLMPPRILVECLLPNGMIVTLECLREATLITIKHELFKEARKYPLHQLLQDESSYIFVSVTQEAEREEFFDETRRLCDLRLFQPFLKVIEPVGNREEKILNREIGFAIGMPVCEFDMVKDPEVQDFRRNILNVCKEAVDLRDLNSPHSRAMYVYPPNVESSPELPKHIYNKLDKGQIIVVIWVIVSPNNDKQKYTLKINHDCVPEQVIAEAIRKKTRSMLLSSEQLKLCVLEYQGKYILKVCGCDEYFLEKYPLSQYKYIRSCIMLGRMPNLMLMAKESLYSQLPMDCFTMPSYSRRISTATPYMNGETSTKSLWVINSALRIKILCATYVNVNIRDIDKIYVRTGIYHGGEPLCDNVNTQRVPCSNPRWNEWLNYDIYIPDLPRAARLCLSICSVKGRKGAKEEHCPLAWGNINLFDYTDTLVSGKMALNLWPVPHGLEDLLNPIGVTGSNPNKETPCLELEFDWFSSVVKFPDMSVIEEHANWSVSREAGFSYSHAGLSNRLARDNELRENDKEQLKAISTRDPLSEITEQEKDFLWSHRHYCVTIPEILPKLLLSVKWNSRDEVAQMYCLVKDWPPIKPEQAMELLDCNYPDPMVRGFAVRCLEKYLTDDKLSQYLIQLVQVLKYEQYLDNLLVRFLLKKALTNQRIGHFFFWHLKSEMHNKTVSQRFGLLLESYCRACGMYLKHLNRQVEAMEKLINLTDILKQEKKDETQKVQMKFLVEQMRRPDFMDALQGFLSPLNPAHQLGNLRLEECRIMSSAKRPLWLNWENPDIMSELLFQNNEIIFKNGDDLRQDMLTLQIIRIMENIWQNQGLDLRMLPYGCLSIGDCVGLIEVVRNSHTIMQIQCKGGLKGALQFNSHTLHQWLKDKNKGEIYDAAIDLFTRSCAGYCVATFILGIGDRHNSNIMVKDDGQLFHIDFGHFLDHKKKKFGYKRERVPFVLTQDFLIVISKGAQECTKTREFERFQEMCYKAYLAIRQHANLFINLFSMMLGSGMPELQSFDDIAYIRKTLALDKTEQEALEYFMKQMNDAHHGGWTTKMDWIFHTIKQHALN
Chain of PI 3-kinase alpha (Q63787 whole entry partner): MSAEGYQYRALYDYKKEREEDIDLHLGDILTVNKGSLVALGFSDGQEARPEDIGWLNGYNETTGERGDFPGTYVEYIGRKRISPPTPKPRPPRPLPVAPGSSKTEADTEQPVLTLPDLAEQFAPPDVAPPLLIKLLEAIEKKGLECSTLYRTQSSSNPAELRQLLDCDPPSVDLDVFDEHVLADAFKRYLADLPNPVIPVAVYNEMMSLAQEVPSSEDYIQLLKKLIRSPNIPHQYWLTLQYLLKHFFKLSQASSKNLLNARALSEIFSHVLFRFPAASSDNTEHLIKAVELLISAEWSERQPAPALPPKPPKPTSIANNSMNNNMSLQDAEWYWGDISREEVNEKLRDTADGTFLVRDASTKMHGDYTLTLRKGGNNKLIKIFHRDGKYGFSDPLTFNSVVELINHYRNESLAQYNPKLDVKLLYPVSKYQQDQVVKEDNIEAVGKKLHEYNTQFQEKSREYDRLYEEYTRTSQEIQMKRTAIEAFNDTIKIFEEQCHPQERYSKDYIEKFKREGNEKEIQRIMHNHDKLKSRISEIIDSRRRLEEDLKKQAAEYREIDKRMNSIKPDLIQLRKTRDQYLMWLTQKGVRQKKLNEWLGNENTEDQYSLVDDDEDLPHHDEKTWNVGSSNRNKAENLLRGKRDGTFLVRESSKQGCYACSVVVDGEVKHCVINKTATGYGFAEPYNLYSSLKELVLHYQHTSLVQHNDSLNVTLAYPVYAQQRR
AlphaScreen (Amplified Luminescent Proximity Homogeneous Assay, ALPHA, Perkin Elmer) is a non-radioactive bead-based proximity assay technology to study biomolecular interactions in a homogenous microtiter plate format. The brand name SureFire denotes AlphaScreen assays that are adapted to quantify the phosphorylation of endogenous cellular proteins in cell lysates, by using matched antibody pairs, which consist of an anti-phospho-kinase and an anti-kinase antibody. The assay allows characterization of kinase signaling in cells as well as measurement of kinase inhibitor effects.
Rat-1 cell lines stably overexpressing activated PI 3-kinase class I isoforms Rat-1 pBABEpuro Myr-HA-hp110 delta clone 5 (Rat-1_PI3Kdelta) and Rat-1 pBABEpuro Myr-HA-hp110 alpha clone 6 (Rat-1_PI3Kalpha) and Rat-1 pBABEpuro Myr-HA-hp110 beta (Rat-1_PI3beta) were cultivated in complete growth medium (DMEM high glucose, 10% (v/v) fetal bovine serum, 1% (v/v) MEM NEAA, 10 mM HEPES, 2 mM L-glutamine, puromycin (10 μg/mL for Rat-1_PI3Kdelta and Rat-1_PI3Kalpha, 4 ug/mL for Rat-1_PI3beta), 1% (v/v) Pen/Strep) to 90% confluency at 37° C./5% CO2/90% humidity in a humidified CO2 incubator and were split twice a week. The following materials were used for p-AKT(5473) detection in Rat-1 cell lysates: Dulbecco's modified Eagle's medium (DMEM) high glucose (Gibco Invitrogen, Basel, Switzerland, Cat. No. 41965), heat inactivated fetal bovine serum, qualified (HI FBS; Gibco Invitrogen, Basel, Switzerland, Lot. No. 16140), MEM non essential amino acids (NEAA; Gibco Invitrogen, Basel, Switzerland, Cat. No. 11140), HEPES (Gibco Invitrogen, Basel, Switzerland, Cat. No. 15630), penicillin/streptomycin (Pen/Strep, 100×; Gibco Invitrogen, Basel, Switzerland, Cat. No. 15140-122), L-glutamine (Gibco Invitrogen, Basel, Switzerland, Cat. No. 25030), puromycin (Sigma Aldrich, Buchs, Switzerland, Cat. No. P9620), DMSO (MERCK, Dietikon, Switzerland, Cat. No. 8.02912.2500), H2O, MilliQ-H2O unless otherwise stated (MILLIPORE QGARDOOR1, Millipore, Zug, Switzerland), bovine serum albumine (BSA; Sigma Aldrich, Buchs, Switzerland Cat. No. A8412), SureFire p-Akt 1/2 (Ser473) Assay Kit (Perkin Elmer, Schwerzenbach, Switzerland, Cat. No. TGRAS50K).
The p-Akt (S473) SureFire assay measures the phosphorylation of endogenous cellular Akt 1/2 at Ser473 in cell lysates. Using Rat-1 cells stably expressing myr-HA-tagged versions of the human PI3Kdelta, PI3Kalpha, or PI3Kbeta p110 catalytic subunit isoforms, the assay was developed as a two-plate protocol in a 384-well format.
For compound testing, the cells were seeded at a density of 4000 (Rat-1_PI3Kdelta), 7500 (Rat-1_PI3Kalpha), or 6200 (Rat-1_PI3Kbeta) cells in 20 μl complete growth medium into cell culture treated 384-well plates and were grown at 37° C./5% CO2/90% humidity for 24 h. Shortly before compound transfer, the complete medium was removed, 30 μl assay buffer (DMEM high glucose, 1×MEM NEAA, 10 mM HEPES, 2 mM L-glutamine, 0.1% (w/v) BSA) was added and 10 μl of the compound predilutions were transferred to the cells. After treatment with compound for 1 h, the cells were lysed by the addition of 20 μl lysis buffer supplemented with 0.24% (w/v) BSA. Detection of p-AKT (Ser473) was performed with the SureFire p-Akt 1/2 (Ser473) Assay Kit according to the manufacturer's instructions using 5 ul of cell lysate in a total detection volume of 12 μl.
IC50 values of the percentage inhibition of each compound at 8 concentrations (usually 10, 3.0, 1.0, 0.3, 0.1, 0.030, 0.010 and 0.003 μM) n=2 were derived by fitting a sigmoidal dose-response curve to a plot of assay readout over inhibitor concentration as described. All fits were performed with the program XLfit4 (ID Business Solutions, Guildford, UK).
For `Cc1ccc(S(=O)(=O)NCC2(C)COC2)cc1-c1cncc(-c2cn(C)nc2C)n1` [Example 4, Trans 3-[6-(1,3-Dimethyl-1H-pyrazol-4-yl)-pyrazin-2-yl]-4-methyl-N-(3-methyl-oxetan-3-ylmethyl)-benzenesulfonamide], the IC50 was found to be 293 nM. On to `Cc1ccc(S(=O)(=O)NCCC(C)(C)O)cc1-c1cncc(-c2cn(CCN3CCOCC3)nc2C)n1` [Example 10, N-(3-Hydroxy-3-methyl-butyl)-4-methyl-3-{6-[3-methyl-1-(2-morpholin-4-yl-ethyl)-1H-pyrazol-4-yl]-pyrazin-2-yl}-benzenesulfonamide], for which the IC50 turned out to be 3090 nM. For `Cc1ccc(S(=O)(=O)N[C@H]2CC[C@H](O)CC2)cc1-c1cncc(-c2cccnc2)n1` [Example 11, Trans N-(4-Hydroxy-cyclohexyl)-4-methyl-3-(6-pyridin-3-yl-pyrazin-2-yl)-benzenesulfonamide] the value was 1700 nM; for `Cc1ccc(S(=O)(=O)NCCC(C)(C)O)cc1-c1cncc(-c2cn(C)nc2C)n1` [Example 3, 3-[6-(1,3-Dimethyl-1H-pyrazol-4-yl)-pyrazin-2-yl]-N-(3-hydroxy-3-methyl-butyl)-4-methyl-benzenesulfonamide], 1020 nM. For `Cc1ncc(-c2cncc(-c3cc(S(=O)(=O)N[C@H]4CC[C@H](O)CC4)ccc3C)n2)s1` [Example 5, Trans N-(4-Hydroxycyclohexyl)-4-methyl-3-(6-(2-methylthiazol-5-yl)pyrazin-2-yl)benzenesulfonamide] the value was 838 nM; for `Cc1ccc(S(=O)(=O)NCC(C)(C)O)cc1-c1cncc(-c2cn(C)nc2C)n1` [Example 2, 3-[6-(1,3-Dimethyl-1H-pyrazol-4-yl)-pyrazin-2-yl]-N-(2-hydroxy-2-methyl-propyl)-4-methyl-benzenesulfonamide], 450 nM.

Turning to `Cc1ccc(S(=O)(=O)NCCC(C)(C)O)cc1-c1cncc(-c2cnn(CCN3CCOCC3)c2)n1` [Example 9, N-(3-Hydroxy-3-methyl-butyl)-4-methyl-3-{6-[1-(2-morpholin-4-yl-ethyl)-1H-pyrazol-4-yl]-pyrazin-2-yl}-benzenesulfonamide], the IC50 stood at 2480 nM.
